Counter-ions that a name gives are not always drawn. Like-named read-outs stand apart in the source and are kept apart here.
Legend:
bladder epithelium [1] = system: bladder epithelium
Procedure: A study was conducted to evaluate the effect of ethanol pretreatment on adenovirus-mediated gene transfer and expression in the bladder epithelium of rodents.
Ad-βgal virus was made as a frozen formulation using standard conditions known in the art for freezing and formulation of adenovirus. The vehicle for the virus arm was PBS plus 10% glycerol.
80 female BALB/c mice were used for this study. Female animals are chosen because of the ease of urethral cannulation and vesicle instillation. The mice were approximately 10 to 12 weeks on the day of the start of the experiment.
Animals were anesthetized with isoflurane and a 24 g catheter introduced through the urethra into the bladder.
Residual urine was emptied and the bladder was flushed 3 times with 100-150 μl each of PBS.
Ad-βgal viruses diluted in 0.1 ml of PBS-10% glycerol were administered intravesically into the bladder and retained in the bladder for 45 minutes. A knot was placed around the urethral orifice to prevent leakage of the virus and to prevent the catheter from dislodging.
Treatment was stopped by withdrawing the virus and flushing the bladders 3 times with 100-150 μl of PBS. […]
Animals were killed 48 hours after treatment. […] Transgene expression in the luminal epithelium of the longitudinally opened bladders was empirically determined.

Ad5-LacZ adenovirus [2] = test: Study #1: compatibility of Ad5-LacZ with ethanol and urine (plaque assay); format: physicochemical; settings: 40% ethanol, 37° C. one hour
Procedure: In this study, each sample was incubated at 37° C. for one hour before the plaque assay started.

Ad5-LacZ adenovirus [3] = test: Study #2: compatibility of Ad5-LacZ with ethanol (plaque assay); format: physicochemical; settings: higher concentrations of ethanol (i.e., ≧10%)
Procedure: For this study, each sample was incubated at 37° C. before the plaque assay started.

bladder epithelium [4] = test: Effect of chemical agent pretreatment on adenovirus-mediated gene transfer and expression (Ad-βgal, X-gal staining); format: in vivo, mouse (BALB/c); settings: for effect on transduction (in words): bladder pretreatment followed by Ad-LacZ
Procedure: 152 female BALB/c mice were used this study.
The route of administration of the chemical agent and virus was intravesical.
3. Based on the reagent being tested, bladder pretreatment was performed as follows:
Poloxomer 407 procedure: Washed 2 times with 100 μl each. Retained the 3rd wash for 5 min and gave one additional wash. Performed 3 times PBS wash prior to virus instillation.
Poloxomer 188 procedure: Washed 2 times with 100 μl each. Retained the 3rd wash for 5 minutes and gave one additional wash. Performed 3 times PBS wash prior to virus instillation.
Lipofectamine 2000 procedure: Added 5 μl of stock Lipofectamine (1 mg/ml) to 195 μl of PBS-10% glycerol. Mixed with an equal volume of Ad-βgal virus and incubated for 15 minutes. Administered 100 μl of the mixture intravesically and retained in the bladder for 30 minutes.
Benzyl Alcohol procedure: Washed 2 times with 100 μl each. Retained the 3rd wash for 15 minutes and then gave one additional wash. Performed 3 times PBS wash prior to virus instillation.
Performed 3 times PBS wash prior to virus instillation.
Polidocanol procedure: Washed 2 times with 100 μl each. Retained the 3rd wash for 5 min and then gave one additional wash. Performed 3 times PBS wash prior to virus instillation.
DC-Cho procedure: Washed 2 times with 100 μl each. Retained the 3rd wash for 5 min and then gave one additional wash. Performed 3 times PBS wash prior to virus instillation.
0.4% HPMC 2910 procedure: No pretreatment. An equal volume of the virus was mixed with 0.8% solution of HPMC2910 and the mixture was instilled into the bladder for 30 minutes.
100 mg/ml Poly-Lysine procedure: No pretreatment. An equal volume of the virus was mixed with 100 mg/ml solution of Poly-Lysine and the mixture was instilled into the bladder for 30 minutes.
0.4% polyvinyl alcohol (PVA) procedure: No pretreatment. An equal volume of the virus was mixed with 0.8% solution of PVA and the mixture was instilled into the bladder for 30 minutes.
n-dodecyl-β-D glucopyranoside procedure: Washed 2 times with 100 μl each. Retained the 3rd wash for 5 min and then gave one additional wash. Performed 3 times PBS wash prior to virus instillation.
0.4% PVP procedure: No pretreatment. An equal volume of the virus was mixed with 0.8% solution of PVP and the mixture was instilled into the bladder for 30 min.
0.1% cholesterol-cyclodextrin reagent procedure: No pretreatment. An equal volume of the virus was mixed with 0.2% solution of Cholesterol-Cyclodextrin and the mixture was instilled into the bladder for 30 minutes.
n-dodecyl-β-D-maltoside procedure: Washed 2 times with 100 μl each. Retained the 3rd wash for 5 min and then gave one additional wash. Performed 3 times PBS wash prior to virus instillation.
Sodium salt of dodecyl benzenesulfonic acid procedure: Washed 2 times with 100 μl each. Retained the 3rd wash for 5 min and then gave one additional wash. Performed 3 times PBS wash prior to virus instillation.
0.1% sodium dodecyl sulphate procedure: Wash 2 times with 100 μl each. Retained the 3rd wash for 5 min and then gave one additional wash. Performed 3 times PBS wash prior to virus instillation.
0.1% Tween 20 procedure: Washed 2 times with 100 μl each. Retained the 3rd wash for 5 min and then gave one additional wash. Performed 3 times PBS wash prior to virus instillation.
0.1% Triton® X-100 procedure: Washed 2 times with 100 μl each. Retained the 3rd wash for 5 min and then gave one additional wash. Perform 3 times PBS wash prior to virus instillation.
0.1% Forlan C-24 procedure: Washed 2 times with 100 μl each. Retained the 3rd wash for 5 min and then gave one additional wash. Performed 3 times PBS wash prior to virus instillation.
0.1% decyl-b-D-maltoside procedure: Washed 2 times with 100 μl each. Retained the 3rd wash for 5 min and then gave one additional wash. Performed 3 times PBS wash prior to virus instillation.
0.1% 6-cyclohexylhexyl-b-D-maltoside procedure: Washed 2 times with 100 μl each. […]

bladder epithelium [5] = test: Transduction efficacy of exemplary pretreatment agents (summary Table 7); format: in vivo, mouse; settings: pretreatment agent
adenovirus [6] = test: Study #3: compatibility of adenovirus with selected enhancers (plaque assay); format: physicochemical
Procedure: For this study, each sample was incubated at 37° C. or 25° C. before the plaque assay started.

bladder = test: Histopathology of bladders after chemical agent pretreatment (pathologists report); format: in vivo, mouse (BALB/c)
Description: Bladders fixed in whole organ fixative were sectioned and stained with hematoxylin-eosin for histologic examination.

adenovirus [7] = test: Study #4: degradation of adenovirus by SDS (anion exchange chromatography); format: physicochemical; settings: 37° C.
Procedure: A series of experiments were preformed on samples of adenovirus incubated at 37° C. for 15-30 minutes in various concentrations of SDS. The resulting material was examined by anion exchange chromatography.

adenovirus (Ad-LacZ) = test: Study #5: adenovirus stability after incubation with 0.1% SDS or 0.1% DDM (plaque assay); format: physicochemical; settings: 0.1% solution, one hour at 25° C. or 37° C.
Procedure: In this study, adenovirus (Ad-LacZ) preparations (1.0×10^12 vp/ml) were mixed with solutions of SDS or DDM to obtain a mixture of adenovirus and each of these surfactants. […] These samples were incubated at 25° C. or 37° C. for one hour before freezing. They were sent to assay services for plaque assay analysis.

[8] = system: SD rat bladder epithelium; test: Adenovirus dose titration with SDS or DDM pretreatment; format: in vivo, Sprague Dawley Rat; settings: 0.1% pretreatment
Description: All the animals had >90% in Ad-βgal gene expression in mice bladder. Adenovirus Dose Titration with Different Chemical Agents Pretreatment on SD Rat Bladder Epithelium • Species: Female Sprague Dawley Rat (Taconic Laboratory)—2/group • Study Design: To test the virus infectivity of rat bladder epithelium with different doses of Adenovirus following the pretreatment with SDS or DDM. This study also explored relationship between bladder volume and residual of SDS or DDM for adenovirus infectivity. • Dose/Route:
Rat bladders infected with 4×10^10 vp adenovirus achieved >90% Ad-βgal gene expression levels whereas rat bladders infected with 4×10^9 vp adenovirus had Ad-βgal gene expression levels range from 30% to 50%. […] Efficacy of Dodecyl-β-D-Maltoside as a Pretreatment Agent Prior to Adenovirus Infection of Mice Bladder Urothelium • Species: Female Balb/c Mouse (Taconic Laboratory)—2/group • Study Design: To test DDM from two different suppliers as pretreatment agents to enhance the adenovirus infection of mice bladder urothelium in a large group of animals. • Dose/Route: […]

[9] = 0.2% pre-treatment for 5 minutes
[10] = 0.02% pre-treatment for 5 minutes
[11] = 0.05% pre-treatment for 5 minutes

Molecule	effect on transduction (in words) (bladder epithelium [4])	Transduction Efficacy (bladder epithelium [5])	response class (level of transduction) (bladder epithelium [4])	further results
CCO [ethanol]				transduction (bladder epithelium [1]; 15%, 20%, 25%, and 30 wt. % ethanol pretreatment for 20 minutes, then Ad-βgal 45 min, 48 hours): 10-20%; transduction (bladder epithelium [1]; ethanol percentage as high as 30%, reference pre-treatment): 10-20%; effect on the virus (in words) (Ad5-LacZ adenovirus [2]): inactivated most of the virus; effect on adenovirus (in words) (Ad5-LacZ adenovirus [3]): partial to complete inactivation of adenovirus
CCCCCCCCCCCCO[C@@H]1O[C@H](CO)[C@@H](O)[C@H](O)[C@H]1O [n-dodecyl-β-D-glucopyranoside]	little or no enhancement of transduction			
CCCCCCCCCCOS(=O)(=O)[O-].[Na+] [Sodium decyl sulfate]		+ (“+” means 10-25% transduction efficacy)		
sucrose monolaurate		++++ (“++++” means >75% transduction efficacy)		
Triton X-100	found to enhance transduction	+ (“+” means 10-25% transduction efficacy)	weak responders (had significantly less stained area compared to the ethanol control group)	
CCCCCCCCCCCCO[C@H]1O[C@H](CO)[C@@H](O[C@H]2O[C@H](CO)[C@@H](O)[C@H](O)[C@H]2O)[C@H](O)[C@H]1O [n-Dodecyl-α-D-Maltoside, n-dodecyl-α-D-maltoside]		++++ (“++++” means >75% transduction efficacy)		
CCCCCCCCCCO[C@@H]1O[C@H](CO)[C@@H](O[C@H]2O[C@H](CO)[C@@H](O)[C@H](O)[C@H]2O)[C@H](O)[C@H]1O [n-decyl-β-D-maltoside]	only a slight effect on transduction	+ (“+” means 10-25% transduction efficacy)	weak responders (had significantly less stained area compared to the ethanol control group)	
CCCCCCCCCCCCc1ccc(S(=O)(=O)[O-])cc1.[Na+] [sodium salt of dodecyl-benzenesulfonic acid]	enhanced the transduction of Ad-LacZ in murine bladders	+ (“+” means 10-25% transduction efficacy)	strongest response	transduction of the urothelium (bladder epithelium [4]; [9]): 20-40%
polyethyleneglycoldodecyl ether [polidocanol, reference compound]		++ (“++” means 25-50% transduction efficacy)	strongest response	transduction of the urothelium (bladder epithelium [4]; [10]): 10-20%; transduction of the urothelium (bladder epithelium [4]; [11]): 30-40%; transduction of the urothelium (bladder epithelium [4]; [9]): 50-80%; Average pfu/mL (adenovirus [6]; 25° C., 2 hours): 1.02E+10 pfu/mL; Ratio vp/pfu (adenovirus [6]; 25° C., 2 hours): 21 vp/pfu; Average pfu/mL (adenovirus [6]; 37° C., 1 hour): 1.22E+10 pfu/mL; Ratio vp/pfu (adenovirus [6]; 37° C., 1 hour): 17 vp/pfu; compatibility with the adenovirus (in words) (adenovirus [6]; under the experimental conditions of Table 5): compatible with the adenovirus; pathologists report (bladder; [10]): intact mucosa; pathologists report (bladder; [11]): minimal submucosal edema; pathologists report (bladder; [9]): erosions and focal ulcer as well as mucosal compromise
OC[C@H]1O[C@H](O[C@H]2[C@H](O)[C@@H](O)[C@H](OCCCCCCC3CCCCC3)O[C@@H]2CO)[C@H](O)[C@@H](O)[C@@H]1O [6-cyclohexylhexyl-β-D-maltoside]	increased transduction significantly	++++ (“++++” means >75% transduction efficacy)	strongest response	
CCCCCCCCCCCCCCO[C@@H]1O[C@H](CO)[C@@H](O[C@H]2O[C@H](CO)[C@@H](O)[C@H](O)[C@H]2O)[C@H](O)[C@H]1O [n-Tetradecyl-β-D-Maltoside]		++ (“++” means 25-50% transduction efficacy)		
CCCCCCCCCCCCOS(=O)(=O)O [Sodium dodecyl sulfate, sodium dodecyl sulfate]		++++ (“++++” means >75% transduction efficacy)	strongest response	degradation of the virus (AEX) (adenovirus [7]; SDS above or equal to 0.025%, 15-30 minutes): will rapidly degrade the virus; particle quality or quantity by AEX method (adenovirus [7]; SDS at 0.0125%, 30 minutes of incubation): did not reduce the particle quality or quantity; effect on adenovirus (in words) (adenovirus (Ad-LacZ)): will inactivate the virus; removal of GAG layer of bladder epithelium [8]: effective to remove GAG layer of bladder epithelium
CCCCCCCCCCCCCOC1OC(CO)C(OC2OC(CO)C(O)C(O)C2O)C(O)C1O [n-Tridecyl-β-D-Maltoside]		+++ (“+++” means 50-75% transduction efficacy)		
